Values quoted from earlier work, collected in patent US5834196A, “Method for detecting and/or optionally quantifying and/or separating apoptotic cells in or from a sample” (Nexins Research B.V., priority 1994, dated 1998).
pKd: −log10 of the molar value.

Target: annexin V
Conditions: phosphatidyl serine containing membranes; Ca^2+ dependent binding; given as an estimation

For phosphatidyl serine, the pKd is listed as > 10.00.
